Format in all cases: in vivo, human
One experiment has as its system LTB4. In words: Study DG-031-204: ionomycin-stimulated LTB4 in whole blood. As to conditions: for Stimulated LTB4 (% change from baseline, whole blood, WBC corrected, 15 minute): after 4 weeks. As for the experimental part:
Briefly, the cell pellets from the Ficoll gradient were harvested and the red blood cells were subsequently lysed in 0.165 M NH4CL for 10 minutes on ice. After washing with PBS, neutrophils were counted and plated at 2×10^6 cells/ml in 4 ml cultures of 15% Fetal calf serum (FCS) (GIBCO BRL) in RPMI-1640 (GIBCO BRL). The cells were then stimulated with maximum effective concentration of ionomycin (1 μM). At 0, 15, 30, 60 minutes post ionomycin addition 600 μl of culture medium was aspirated and stored at −80° C. for the measurement of LTB4 release as described below. The cells were maintained at 37° C. in a humidified atmosphere of 5% CO2/95% air. All samples were treated with indomethasine (1 μM) to block the cyclooxygenase enzyme. The experimental conditions are described above.
LTB4 Immunoassay Assay Design was used to quantitate LTB4 concentration in supernatant from cultured ionomycin stimulated neutrophils. The assay used is based on the competitive binding technique in which LTB4 present in the testing samples (200 μl) competes with a fixed amount of alkaline phosphatase-labelled LTB4 for sites on a rabbit polyclonal antibody. During the incubation, the polyclonal Ab becomes bound to a goat anti-rabbit Ab coated onto the microplates. Following a wash to remove excess conjugate and unbound sample, a substrate solution is added to the wells to determine the bound enzyme activity. The color development is stopped and the absorbance is read at 405 nm. The intensity of the color is inversely proportional to the concentration of LTB4 in the sample. Each LTB4 measurement using the LTB4 Immunoassay, was done in duplicate. […]
The biomarkers were analyzed as described in Example 1. […]
Serum was collected weekly for determination of LTB4 concentration in response to the treatment with DG-031. […] Stimulated LTB4 effects measured in study DG-031-204, as shown in the raw data set out in Table 12, appear consistent with projections from the exposure-response analysis based on data from studies DG-031-201 and DG-031-203. […]

Experiment [1] has as its system MPO. Briefly: Study DG-031-204: plasma MPO. As to conditions: for Serum MPO (% change from baseline), mean response: after 4 weeks of DG-031 administration. As for the experimental part:
(§1) An additional single site, open label study was carried out to obtain biomarker and safety data on additional DG-031 doses (i.e., 1000 mg and 1500 mg). This study examined the safety, tolerability and dose-related effects of DG-031 on inflammatory biomarkers including: LTB4, hsCRP, and MPO. A total of 119 patients with a prior history of CAD and MI were randomized to receive either 1000 mg DG-031 (500 mg BID) or 1500 mg DG-031 (500 mg TID) daily for 4-6 weeks. Treatment with DG-031 in addition to the subject's standard care, medication, and treatment, was prescribed by the patient's cardiologist. A majority of the subjects received statin therapy before, during and after the study. Follow-up assessments were performed 2 weeks after the end of study drug administration.
(§2) The biomarkers were analyzed as described in Example 1. Statistical analysis of the data was carried out using a one-sample t-test on change from baseline with a two-sided nominal significance level of 0.050. Biomarker concentrations were log-transformed and a simple last observation carried forward (LOCF) scheme was used to impute missing observations.
(§3) Plasma MPO concentration was measured weekly. MPO measurements in ionomycin-stimulated whole blood were also measured in a subset of patients at 4 weeks.

Experiment [2] relates to MPO. Briefly: Study DG-031-204: MPO in ionomycin-stimulated whole blood. As to conditions: for Stimulated MPO from whole blood (% change from baseline, whole blood, WBC corrected, 60 minute), mean response: after 4 weeks of DG-031 administration. How it is done:
as §1, §2, §3

We go through one molecule from US20090030037A1, “Sustained Release Formulation and Dosing Schedules of Leukotriene Synthesis Inhibitor for Human Therapy” (deCODE Genetics ehf., priority 2005, published 2009).

Each structure is given as a SMILES string.

For the molecule `O=C(O)[C@@H](c1ccc(OCc2ccc3ccccc3n2)cc1)C1CCCC1` [DG-031, (R)-(+)-alpha-cyclopentyl-4-(2-quinolinylmethoxy)-Benzeneacetic acid], in the experiment with LTB4 (500 mg BID), the “Reduction of LTB4 levels, ionophore-stimulation assay” value amounted to 35%. For the same molecule, the “Stimulated LTB4 (% change from baseline, whole blood, WBC corrected, 15 minute)” value is −44% in the experiment on LTB4 (1000 mg (500 mg BID)) and −28% in the experiment with LTB4 (1500 mg (500 mg TID)). Further, the “Plasma MPO concentrations, change from baseline” value in the experiment with MPO [1] (500 mg BID or TID, measured weekly) is “No changes from baseline”. Further, the “Serum MPO (% change from baseline), mean response” value in the experiment on MPO [1] (1000 mg (500 mg BID)) is on record as “+3%”; with MPO [1] (1500 mg (500 mg TID)) it was −12%. The “Stimulated whole blood MPO concentrations” value with MPO [2] (500 mg BID or TID, 4 weeks) is recorded as “decreased”. The “Stimulated MPO from whole blood (% change from baseline, whole blood, WBC corrected, 60 minute), mean response” value in the experiment with MPO [2] (1000 mg (500 mg BID)) is recorded as −19%; in the experiment with MPO [2] (1500 mg (500 mg TID)), −29%.
